Assay results reported in patent US20250288687A1, “COMBINATION OF ANTIBODY-DRUG CONJUGATES AND DNMT INHIBITORS” (priority 2022, published 2025).

Columns and labels:
[1] = system: TROP2 and SLFN11 expression; conditions: decitabine treatment; cited from earlier work
[2] = system: HCT-15 cells; assay: Cell growth inhibition study, DS-1062a with or without decitabine pre-treatment (CellTiter-Glo); type: cell-based, Human; conditions: DAC (1, 0.3, 0.1 μM, 3 days) treated vs untreated cells, DS-1062a 0.1-100 nM, 8 days, FIG. 12B
Description: (§1) Human colorectal cancer cell lines DLD-1 and HCT-15, obtained from American Type Culture Collection (ATCC), were incubated with RPMI1640 medium supplemented with 10% (v/v) heat-inactivated FBS, 1% (v/v) penicillin-streptomycin solution and 1 mM sodium pyruvate (Medium), with or without Decitabine (DAC) (Tokyo Chemical Industry Co., Ltd) at 1, 0.3 and 0.1 μM at 37° C. under 5% CO2 for 3 days. The cells were harvested and re-seeded at 1000 cells/80 μL/well into 96-well black clear bottom plates, and incubated overnight at 37° C. under 5% CO2. Then 20 μL of the DS-1062a solutions diluted with the Medium at the concentrations from 500 nM to 0.5 nM were added into the wells and incubated for 6 days for DLD-1 cells, and for 8 days for HCT-15 cells, respectively. The final concentrations of DS-1062a were 100, 10, 1 and 0.1 nM. After the incubation, the cellular ATP levels were measured using CellTiter-Glo Luminescent Cell Viability Assay (Promega) and a microplate reader.
(§2) Cell viability, defined as relative percent to the value of DS-1062a non-treated cells in each group treated with or without DAC, was assessed (N=1 (triplicate), mean±SD).
(§3) Individual cell viability (%) was calculated by the following equation:
(§4) [formula] • T: individual luminescence intensity of the wells treated with DS-1062a at each concentration • C: mean luminescence intensity of the wells treated without DS-1062a

[3] = system: DLD-1 cells; assay: as above; type: cell-based, Human; conditions: DAC (1, 0.3, 0.1 μM, 3 days) treated vs untreated cells, DS-1062a 0.1-100 nM, 6 days, FIG. 12A
Description: as §1, §2, §3, §4

[4] = system: DLD-1 xenograft mouse model; assay: Antitumor test, DS-1062a with or without decitabine pre-treatment; type: in vivo, BALB/c-nu mice; conditions: DS-1062a 10 mg/kg IV Day 7; DAC 0.5 mg/kg SC Day 0-4 pretreated vs untreated group; Day 28, Welch's t-test, P<0.05; FIG. 13
Description: Female BALB/c-nu mice aged 5-6 weeks (The Jackson Laboratory Japan, Inc.) were used, following 4 days acclimatisation before entry into the study.
(§5) 3×10^6 of DLD-1 cells suspended in saline were implanted subcutaneously onto the flank of the mice. The major axis and the minor axis of the tumor were measured twice a week with an electronic digital caliper and the tumor volume was calculated by the following equation:
When the tumor volume reached approximately 100-150 mm^3, the tumor-bearing mice were randomly assigned to treatment groups (Day 0) as shown in Table 1:
Decitabine (Tokyo Chemical Industry Co., Ltd) was dissolved and diluted with Phosphate-buffered saline (PBS) and subcutaneously administered to the mice. DS-1062a solution was diluted with ABS buffer (10 mM Acetate buffer [pH5.5], 5% sorbitol) and intravenously administered to the tail vein of the mice. The dose of the compounds for each mouse was calculated based on the individual body weight on the day of dosing. Decitabine was subcutaneously administered at 0.5 mg/kg once a day from Day 0 to Day 4 (5 dosing in total). […] Statistical significance between the ‘DS-1062a’ group and the ‘Decitabine+DS-1062a’ group was evaluated using Welch's t-test on the tumor volumes at the day of the final measurement (Day 28).

[5] = system: DLD-1 cells; assay: Cell growth inhibition study, DS-1062a with or without azacitidine pre-treatment (CellTiter-Glo); type: cell-based, Human; conditions: AZA (10, 3.3, 1.1 μM, 3 days) treated vs AZA untreated cells, DS-1062a 0.1-100 nM, 6 days, FIG. 14
Description: Human colorectal cancer cell line DLD-1 was incubated with RPMI1640 medium supplemented with 10% (v/v) heat-inactivated FBS (Medium), with or without Azacitidine (AZA) at 10, 3.3 and 1.1 μM at 37° C. under 5% CO2 for 3 days. The cells were harvested and re-seeded at 1000 cells/90 μL/well into a 96-well black clear bottom plate, and incubated overnight at 37° C. under 5% CO2. Then 10 μL of the DS-1062a solutions diluted with the Medium at the concentrations from 1000 nM to 1 nM were added into the wells and incubated for 6 days. The final concentrations of DS-1062a were 100, 10, 1 and 0.1 nM. After the incubation, the cellular ATP levels were measured using CellTiter-Glo Luminescent Cell Viability Assay (Promega Corporation) and a microplate reader.
Cell viability, defined as relative percent to the value of DS-1062a non-treated cells in each group treated with or without AZA, was assessed (N=1 (triplicate), mean±SD).
Individual cell viability (%) was calculated by the following equation;
as §4

[6] = system: DLD-1 xenograft mouse model; assay: Antitumor test, IMMU-132 with or without decitabine pre-treatment; type: in vivo, BALB/c-nu mice; conditions: IMMU-132 10 mg/kg IV Day 7, 14; with vs without DAC 0.5 mg/kg SC Day 0-4 pre-treatment; Day 28, Welch's t-test; FIG. 15
Description: Female BALB/c-nu mice aged 5 weeks (The Jackson Laboratory Japan, Inc.) were used, following 5 days acclimatization before entry into the study.
as §5
When the tumor volume reached approximately 100-150 mm^3, the tumor-bearing mice were randomly assigned to the treatment groups (Day 0) as shown in Table 2.
Statistical significance between IMMU-132 group and Decitabine+IMMU-132 group was evaluated using Welch's t-test on the tumor volumes at the day of the final measurement (Day 28).
Decitabine (DAC) was dissolved with Phosphate-buffered saline (PBS) and subcutaneously administered to the mice. IMMU-132 was dissolved with ABS buffer (10 mM Acetate buffer [pH5.5], 5% sorbitol) and intravenously administered to the tail vein of the mice. The dose volume of the compounds for each mouse was calculated based on the latest individual body weight measured within 2 days before dosing. DAC was subcutaneously administered at 0.5 mg/kg once a day from Day 0 to Day 4 (5 dosing in total). IMMU-132 was intravenously administered at 10 mg/kg to the tail vein on Day 7 and Day 14 (Weekly dosing×2).

[7] = system: xenograft cell lines of metaplastic cancer origin and mesenchymal subtype breast cancer cell lines; conditions: sacituzumab govitecan combined with decitabine; cited from earlier work

Compound: Nc1ncn([C@H]2C[C@H](O)[C@@H](CO)O2)c(=O)n1 [decitabine, 5-aza-2′-deoxycytidine]
- TROP2 and SLFN11 expression [1]: upregulates

Compound: datopotamab deruxtecan [DS-1062a]
- cell growth inhibitory activity (cell viability) [2]: enhanced
- cell growth inhibitory activity (cell viability) [3]: enhanced
- antitumor activity (tumor volume) [4]: significantly enhanced
- cell growth inhibitory activity (cell viability) [5]: enhanced

Compound: Sacituzumab govitecan [IMMU-132]
- antitumor activity (tumor volume) [6]: not significantly different
- antitumor efficacy [7]: enhances
